Test results reported in patent US8129357B2, “Method of making and using an adenosine analogue” (Academia Sinica, priority 2006, dated 2012).
“Also recorded” adds a separate entry of the source.

How the values were obtained:
A2A-R = target: T1, A2A-R (Rattus norvegicus, UniProt P30543); test: Cellular cAMP content of ST14A cells; format: cell-based; settings: for intracellular cAMP level: 20 min at RT, CGS21680 10 μM, T1-C 10 μM, T1-11 26.8 μM
T1 construct: treating ST14A cells (Ehrlich, et al. (2001)) with either T1-C or T1-11 also elevated the intracellular cAMP level; endogenous in cells; host or cells: ST14A striatal progenitor cell line

PC12 cells = test: MTT assay: protection of serum-deprived PC12 cells from apoptosis; format: cell-based, rat; settings: 24 h treatment
Protocol: PC12 cells purchased from American Type Culture Collection (ATCC, Manassas, Va., USA) were maintained in Dulbecco's Modified Eagle Medium (DMEM) supplemented with 10% horse serum and 5% fetal bovine serum and incubated in a CO2 incubator (5%) at 37° C. The striatal progenitor cell line (ST14A) was obtained from Dr. E. Cattaneo (University of Milano, Italy) and was maintained in an incubation chamber with 10% CO2-90% air at 33° C. as described previously (Ehrlich, et al. (2001)).
PC12 cells were serum-deprived by three washes of phosphate buffered saline (PBS) and resuspended in DMEM. The suspended cells were plated on 96-well plates (1×10^4 cells/well) and treated with the indicated reagent(s). After treatment for 21 h, 3-(4,5-dimethylthiazol-2-yl)-2,5-diphenyl tetrazolium bromide (MTT) was added to the medium (0.5 mg/mL) and incubated at 37° C. for another 3 h. After discarding the medium, 100 μl dimethyl sulfoxide (DMSO) was then applied to each well to dissolve the formazan crystals and the absorbances at 570 and 630 nm in each well were measured on a micro-enzyme linked immunosorbent assay (ELISA) reader.

R6/2 mice [1] = test: Rotarod performance (motor coordination) in R6/2 mice; format: in vivo, mouse; settings: drinking water from the age of 4 weeks, T1-C 0.5 mg/mL, T1-11 0.05 mg/mL
From the text: Male R6/2 mice and littermate controls were mated to female control mice (B6CBAFI/J). Mice were obtained from Jackson Laboratories, Bar Harbor, Me., USA. Offspring were identified by the PCR genotyping technique of genomic DNA extracted from tail tissues using primers located in the transgene (5′-[…]-3′ (SEQ ID NO: 1) and 5′-[…]-3′ (SEQ ID NO: 2)) to ensure that the number of CAG repeats remained approximately 150. In total, 67 R6/2 transgenic mice were used in this study. Animals were housed at the Institute of Biomedical Sciences Animal Care Facility under a 12-h light/dark cycle. Daily injections of the indicated reagent were given between 13:00 and 18:00. Body weights of mice were recorded once daily, prior to diet administration. Animal experiments were performed under protocols approved by the Academia Sinica Institutional Animal Care and Utilization Committee, Taiwan.
Motor coordination was assessed using a rotarod apparatus (UGO BASILE, Comerio, Italy) at a constant speed (12 rpm) over the period of 2 min (Carter, et al. (1999)). All mice were trained for 2 days at the age of 6 weeks to allow them to become acquainted with the rotarod apparatus. Animals were then tested three times per week from the ages of 7 to 12 weeks. For each test, animals were placed in the apparatus before initiation of rotation. Latency to falling was automatically recorded. […]

R6/2 mice [2] = test: Survival / lifespan of R6/2 mice; format: in vivo, mouse; settings: for lifespan of R6/2 mice: drinking water from the age of 4 weeks, T1-C 0.5 mg/mL, T1-11 0.05 mg/mL; for mean survival time: mean±SEM, n=7~8, T1-C 0.5 mg/mL, T1-11 0.05 mg/mL in drinking water, control 94.9±2.5
Body weight of R6/2 mice = format: in vivo, mouse; settings: drinking water from the age of 4 weeks, T1-C 0.5 mg/mL, T1-11 0.05 mg/mL
[3] = test system: primary astrocytes from wildtype (WT) and R6/2-J2 mice; test: LPS-induced iNOS expression and NO production in primary astrocytes; format: cell-based, mouse; settings: primary astrocytes from WT and R6/2-J2 mice
Protocol: Primary astrocytes were purified from neonatal (1-2-day old) brains of R6/2 HD mice (Mangiarini, L., et al., Exon 1 of the HD gene with an expanded CAG repeat is sufficient to cause a progressive neurological phenotype in transgenic mice. Cell 87, 493-506 (1996)) and their littermates as the WT control. In brief, the cortexes were carefully removed, digested with 0.05% trypsin-EDTA (Gibco, Grand Island, N.Y., USA) at 37° C. for 10 min, then mechanically dissociated by gentle pipetting and passed through a 70-μm-pore nylon mesh. […] Mutant Htt expression was measured by a mouse monoclonal anti-human Htt antibody (EM48) (1:200 dilution, Chemicon International, Temecula, Calif., USA). The purity of the primary astrocyte cultures was determined by immunocytochemical staining using an antibody against an astrocyte-specific marker (GFAP, dilution 1:1000; Sigma, St. Louis, Mo., USA) or a microglia-specific marker (anti-CD11b, dilution 1:200, Serotec, Oxford, UK). […]
Protein concentrations were determined using the Bio-Rad Protein Assay Dye Reagent Concentrate (Bio-Rad, Hercules, Calif., USA). […]
For the measurement of NO production, cells (5×10^5 cells/well) were treated with lipopolysaccharide (LPS, 0.5 μg/ml) in the presence of the desired drug for 72 hr. […] The absorbance at 540 nm was then monitored. […]

BV2 cells = test: LPS-evoked iNOS induction and NO production in BV2 cells; format: cell-based

T1 sequence (P30543 whole entry): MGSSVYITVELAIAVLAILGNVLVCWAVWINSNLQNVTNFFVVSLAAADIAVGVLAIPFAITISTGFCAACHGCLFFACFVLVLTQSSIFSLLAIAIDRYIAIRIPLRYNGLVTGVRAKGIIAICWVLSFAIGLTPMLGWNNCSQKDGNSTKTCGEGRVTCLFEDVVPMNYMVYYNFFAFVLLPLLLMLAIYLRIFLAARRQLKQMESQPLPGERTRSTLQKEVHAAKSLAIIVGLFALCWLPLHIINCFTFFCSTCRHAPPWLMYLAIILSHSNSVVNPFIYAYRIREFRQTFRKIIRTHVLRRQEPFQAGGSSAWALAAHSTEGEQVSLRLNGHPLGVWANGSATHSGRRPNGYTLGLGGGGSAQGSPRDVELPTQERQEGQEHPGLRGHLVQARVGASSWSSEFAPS

Row | Compound | suppression of the cAMP response by A2A-R antagonist (A2A-R) | protection of PC12 cells from apoptosis induced by serum withdrawal (cell viability, MTT) (PC12 cells) | progressive deterioration of motor coordination (rotarod performance) (R6/2 mice [1]) | lifespan of R6/2 mice (R6/2 mice [2]) | mean survival time (R6/2 mice [2]) [days] | intracellular cAMP level (A2A-R) | body weight loss (Body weight of R6/2 mice) | LPS-induced inflammation (iNOS expression and NO production) [3] | LPS-evoked NO production (BV2 cells) | LPS-evoked iNOS induction (BV2 cells)
1 | Cn1c(=O)c2c(nc(/C=C/c3cccc(Cl)c3)n2C)n(C)c1=O [CSC, reference compound] | suppressed |  |  |  |  |  |  |  |  | 
2 | OCC1OC(n2cnc3c(NCc4ccc(O)cc4)ncnc32)C(O)C1O (stereo not shown) [T1-11, 2-(6-(4-hydroxybenzylamino)-9H-purin-9-yl)-5-(hydroxymethyl)tetrahydrofuran-3,4-diol] |  | active; also recorded: much more potent than T1-C | markedly delayed | elongated | 104.9 ± 5.2 | elevated | ameliorated | effectively suppressed | reduces | reduces
3 | Oc1ccc(CSCc2ccc(O)cc2)cc1 [T1-C, 4,4′-dihydroxybenzyl sulfide] |  | active | markedly delayed | elongated | 106.7 ± 4.6 | elevated | ameliorated |  |  | 
